According to PMC9030254, “Target Hopping from Protein Kinases to PXR: Identification of Small-Molecule Protein Kinase Inhibitors as Selective Modulators of Pregnane X Receptor from TüKIC Library” (Cells, 2022):

How the values were obtained:
Assay in all cases: Kinase profiling
Assay type in all cases: biochemical
EPHB2 = biological target: T1, EPHB2 (Homo sapiens, UniProt P29323)
T1 construct: purchased ProQinase (Freiburg, Germany)
T1 sequence (P29323 19-1055): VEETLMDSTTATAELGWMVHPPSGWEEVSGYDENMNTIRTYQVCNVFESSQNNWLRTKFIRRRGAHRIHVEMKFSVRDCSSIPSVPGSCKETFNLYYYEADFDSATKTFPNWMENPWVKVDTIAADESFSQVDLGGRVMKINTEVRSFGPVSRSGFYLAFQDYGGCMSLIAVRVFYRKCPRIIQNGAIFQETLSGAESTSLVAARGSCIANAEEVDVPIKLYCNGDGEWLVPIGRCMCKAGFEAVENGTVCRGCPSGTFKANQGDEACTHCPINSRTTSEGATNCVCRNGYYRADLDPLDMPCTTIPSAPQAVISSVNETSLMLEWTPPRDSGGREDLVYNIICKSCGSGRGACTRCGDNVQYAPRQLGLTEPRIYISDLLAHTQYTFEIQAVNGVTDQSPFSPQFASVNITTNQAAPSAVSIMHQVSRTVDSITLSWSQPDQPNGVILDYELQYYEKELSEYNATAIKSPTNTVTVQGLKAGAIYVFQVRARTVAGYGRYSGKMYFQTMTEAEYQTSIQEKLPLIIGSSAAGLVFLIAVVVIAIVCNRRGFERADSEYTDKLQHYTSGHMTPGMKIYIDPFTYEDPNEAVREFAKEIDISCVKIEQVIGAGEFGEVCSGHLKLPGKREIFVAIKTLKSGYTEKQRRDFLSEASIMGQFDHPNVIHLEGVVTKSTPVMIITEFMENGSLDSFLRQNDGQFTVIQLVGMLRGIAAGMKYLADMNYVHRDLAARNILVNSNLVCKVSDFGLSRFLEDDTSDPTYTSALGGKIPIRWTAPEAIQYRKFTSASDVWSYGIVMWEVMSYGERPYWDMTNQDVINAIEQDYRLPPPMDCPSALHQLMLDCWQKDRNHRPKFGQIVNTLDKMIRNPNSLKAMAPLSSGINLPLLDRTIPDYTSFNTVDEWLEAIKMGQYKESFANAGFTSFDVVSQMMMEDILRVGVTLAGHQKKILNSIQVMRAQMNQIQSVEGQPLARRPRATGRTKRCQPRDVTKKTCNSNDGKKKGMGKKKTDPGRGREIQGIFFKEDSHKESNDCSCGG
Description: (§1) The analysis was performed by ProQinase (Freiburg, Germany).

FGFR3 = biological target: T2, FGFR3 (Homo sapiens, UniProt P22607)
T2 construct: purchased ProQinase (Freiburg, Germany)
Description: as §1

INSR = biological target: T3, INSR (Homo sapiens, UniProt P06213)
T3 construct: purchased ProQinase (Freiburg, Germany)
Description: as §1

MKK6 SDTD = biological target: T4, MKK6 SDTD (Homo sapiens, UniProt P52564, S207D/T211D)
T4 construct: purchased ProQinase (Freiburg, Germany)
T4 sequence (P52564 1-334 S207D/T211D): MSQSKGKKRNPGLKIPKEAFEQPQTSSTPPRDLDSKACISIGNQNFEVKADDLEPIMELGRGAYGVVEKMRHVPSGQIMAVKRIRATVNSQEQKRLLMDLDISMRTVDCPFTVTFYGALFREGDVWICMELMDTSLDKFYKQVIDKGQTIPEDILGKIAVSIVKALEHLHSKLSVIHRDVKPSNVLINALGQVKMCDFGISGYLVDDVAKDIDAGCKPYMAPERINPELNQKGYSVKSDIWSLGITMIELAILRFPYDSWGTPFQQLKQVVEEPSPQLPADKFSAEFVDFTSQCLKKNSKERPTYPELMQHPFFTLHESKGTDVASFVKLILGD
Description: as §1

MKK4 = biological target: T5, MKK4 (Homo sapiens, UniProt P45985)
T5 construct: purchased ProQinase (Freiburg, Germany)
T5 sequence (P45985 1-399): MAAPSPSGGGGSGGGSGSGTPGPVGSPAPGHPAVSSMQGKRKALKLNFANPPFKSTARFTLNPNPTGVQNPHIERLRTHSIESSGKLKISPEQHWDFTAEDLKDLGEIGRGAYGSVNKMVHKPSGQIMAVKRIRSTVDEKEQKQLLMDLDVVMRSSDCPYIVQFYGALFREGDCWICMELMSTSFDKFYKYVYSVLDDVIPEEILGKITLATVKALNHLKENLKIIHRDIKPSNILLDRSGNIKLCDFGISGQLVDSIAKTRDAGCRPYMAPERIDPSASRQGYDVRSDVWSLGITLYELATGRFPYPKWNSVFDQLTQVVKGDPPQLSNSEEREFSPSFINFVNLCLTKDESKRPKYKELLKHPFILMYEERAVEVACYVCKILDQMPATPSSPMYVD
Description: as §1

ROCK1 = biological target: T6, ROCK1 (Homo sapiens, UniProt Q13464)
T6 construct: purchased ProQinase (Freiburg, Germany)
Description: as §1

T2 sequence (P22607 23-806): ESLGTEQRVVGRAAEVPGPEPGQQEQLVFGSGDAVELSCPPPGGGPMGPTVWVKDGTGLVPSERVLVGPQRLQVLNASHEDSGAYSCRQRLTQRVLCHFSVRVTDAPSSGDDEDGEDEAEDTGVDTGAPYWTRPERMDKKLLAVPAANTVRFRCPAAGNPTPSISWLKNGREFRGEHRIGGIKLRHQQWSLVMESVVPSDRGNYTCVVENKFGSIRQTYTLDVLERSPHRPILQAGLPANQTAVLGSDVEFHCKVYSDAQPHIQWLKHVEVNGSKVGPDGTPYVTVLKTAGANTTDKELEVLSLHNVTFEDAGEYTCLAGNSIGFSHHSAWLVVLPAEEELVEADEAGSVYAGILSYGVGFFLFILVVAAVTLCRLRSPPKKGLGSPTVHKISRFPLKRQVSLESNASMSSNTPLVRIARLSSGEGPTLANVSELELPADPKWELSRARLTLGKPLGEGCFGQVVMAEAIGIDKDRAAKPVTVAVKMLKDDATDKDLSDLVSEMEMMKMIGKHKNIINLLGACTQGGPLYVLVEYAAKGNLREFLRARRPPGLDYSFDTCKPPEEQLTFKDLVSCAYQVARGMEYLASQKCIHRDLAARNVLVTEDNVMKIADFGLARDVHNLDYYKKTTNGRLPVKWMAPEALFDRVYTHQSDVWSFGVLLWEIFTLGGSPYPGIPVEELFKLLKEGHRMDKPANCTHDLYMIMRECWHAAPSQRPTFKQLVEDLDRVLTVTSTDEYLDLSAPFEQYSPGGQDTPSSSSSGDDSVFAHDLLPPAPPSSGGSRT
T6 sequence (Q13464 whole entry): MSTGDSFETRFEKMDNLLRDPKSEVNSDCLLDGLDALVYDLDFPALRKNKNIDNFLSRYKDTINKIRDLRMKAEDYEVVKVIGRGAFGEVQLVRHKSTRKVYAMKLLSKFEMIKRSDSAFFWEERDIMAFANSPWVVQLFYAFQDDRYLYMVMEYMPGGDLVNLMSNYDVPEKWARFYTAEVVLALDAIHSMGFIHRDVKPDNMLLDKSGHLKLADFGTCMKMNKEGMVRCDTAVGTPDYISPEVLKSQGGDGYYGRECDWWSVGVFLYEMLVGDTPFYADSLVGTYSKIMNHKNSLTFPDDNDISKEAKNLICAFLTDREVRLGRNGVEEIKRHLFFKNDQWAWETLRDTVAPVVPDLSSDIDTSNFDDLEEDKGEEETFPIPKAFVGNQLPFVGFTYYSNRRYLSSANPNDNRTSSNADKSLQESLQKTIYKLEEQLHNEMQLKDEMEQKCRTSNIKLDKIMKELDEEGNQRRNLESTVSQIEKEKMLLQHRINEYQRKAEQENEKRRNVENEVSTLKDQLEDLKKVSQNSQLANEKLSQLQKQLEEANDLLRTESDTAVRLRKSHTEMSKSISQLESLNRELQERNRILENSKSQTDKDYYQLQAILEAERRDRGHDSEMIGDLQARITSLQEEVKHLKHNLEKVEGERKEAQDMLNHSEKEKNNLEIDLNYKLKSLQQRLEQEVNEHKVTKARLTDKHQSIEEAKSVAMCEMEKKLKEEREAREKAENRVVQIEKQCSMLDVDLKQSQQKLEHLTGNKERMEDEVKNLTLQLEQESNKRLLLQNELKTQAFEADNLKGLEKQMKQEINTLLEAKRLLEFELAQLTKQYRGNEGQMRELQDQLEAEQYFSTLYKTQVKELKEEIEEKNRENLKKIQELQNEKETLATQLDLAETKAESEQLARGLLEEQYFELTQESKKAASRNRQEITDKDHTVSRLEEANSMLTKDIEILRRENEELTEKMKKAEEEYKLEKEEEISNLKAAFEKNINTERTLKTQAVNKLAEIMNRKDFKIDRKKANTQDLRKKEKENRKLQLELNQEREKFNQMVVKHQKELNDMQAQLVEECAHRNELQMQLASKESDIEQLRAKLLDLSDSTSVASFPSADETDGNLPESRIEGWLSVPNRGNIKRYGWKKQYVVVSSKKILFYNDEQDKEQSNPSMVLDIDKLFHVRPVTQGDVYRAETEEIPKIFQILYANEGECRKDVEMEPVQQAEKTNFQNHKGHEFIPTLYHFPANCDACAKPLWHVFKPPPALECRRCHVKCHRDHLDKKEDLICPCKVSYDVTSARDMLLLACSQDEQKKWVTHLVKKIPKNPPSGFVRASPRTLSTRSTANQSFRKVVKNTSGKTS
T3 sequence (P06213 28-1382): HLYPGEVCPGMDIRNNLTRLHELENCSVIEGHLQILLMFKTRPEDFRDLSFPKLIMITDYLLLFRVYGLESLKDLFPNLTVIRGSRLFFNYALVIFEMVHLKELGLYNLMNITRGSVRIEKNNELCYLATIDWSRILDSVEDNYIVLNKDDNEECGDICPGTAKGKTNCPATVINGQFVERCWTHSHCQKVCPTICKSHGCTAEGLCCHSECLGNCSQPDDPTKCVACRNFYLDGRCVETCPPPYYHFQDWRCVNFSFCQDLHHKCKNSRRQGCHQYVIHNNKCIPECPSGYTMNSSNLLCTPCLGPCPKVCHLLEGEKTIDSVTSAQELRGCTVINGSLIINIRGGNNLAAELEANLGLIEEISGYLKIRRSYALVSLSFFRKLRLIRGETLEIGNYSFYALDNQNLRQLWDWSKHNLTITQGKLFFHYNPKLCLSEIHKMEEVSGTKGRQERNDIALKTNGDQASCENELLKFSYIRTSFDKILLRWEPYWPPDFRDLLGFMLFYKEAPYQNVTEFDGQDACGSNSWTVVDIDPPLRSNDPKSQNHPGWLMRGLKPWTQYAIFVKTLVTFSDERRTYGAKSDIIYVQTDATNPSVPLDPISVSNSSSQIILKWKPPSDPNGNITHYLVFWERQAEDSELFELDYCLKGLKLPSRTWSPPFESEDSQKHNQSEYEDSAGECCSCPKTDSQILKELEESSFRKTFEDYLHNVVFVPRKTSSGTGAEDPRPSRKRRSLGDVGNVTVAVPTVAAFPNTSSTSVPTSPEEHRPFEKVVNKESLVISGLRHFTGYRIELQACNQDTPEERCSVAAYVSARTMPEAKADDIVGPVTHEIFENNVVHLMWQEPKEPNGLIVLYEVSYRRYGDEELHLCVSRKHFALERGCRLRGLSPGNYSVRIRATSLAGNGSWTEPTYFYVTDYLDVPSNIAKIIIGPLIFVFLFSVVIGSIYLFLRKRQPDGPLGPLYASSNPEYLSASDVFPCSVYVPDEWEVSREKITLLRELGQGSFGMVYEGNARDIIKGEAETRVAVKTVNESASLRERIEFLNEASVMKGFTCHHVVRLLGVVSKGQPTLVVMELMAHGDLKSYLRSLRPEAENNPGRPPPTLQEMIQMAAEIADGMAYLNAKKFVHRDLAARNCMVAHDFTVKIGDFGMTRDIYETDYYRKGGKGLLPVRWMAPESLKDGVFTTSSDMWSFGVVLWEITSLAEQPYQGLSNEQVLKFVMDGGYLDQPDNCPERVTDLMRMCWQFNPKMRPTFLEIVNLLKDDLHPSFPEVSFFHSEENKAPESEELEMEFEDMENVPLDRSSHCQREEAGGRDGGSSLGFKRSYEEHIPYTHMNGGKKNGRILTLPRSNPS

Compound	Residual activity (EPHB2; 1.0E-05 M)	Residual activity (EPHB2; 1.0E-06 M)	Residual activity (FGFR3; 1.0E-05 M)	Residual activity (FGFR3; 1.0E-06 M)	Residual activity (INSR; 1.0E-05 M)	Residual activity (INSR; 1.0E-06 M)	Residual activity (MKK6 SDTD; 1.0E-05 M)	Residual activity (MKK6 SDTD; 1.0E-06 M)	Residual activity (MKK4; 1.0E-05 M)	Residual activity (MKK4; 1.0E-06 M)	Residual activity (ROCK1; 1.0E-05 M)	Residual activity (ROCK1; 1.0E-06 M)
O=C(Nc1ccc(F)c(Nc2ccc3c(c2)CCCCC3=O)c1)c1cccc(F)c1 [Compound 109]	84 % of control	86 % of control	95 % of control	110 % of control	84 % of control	95 % of control	137 % of control	85 % of control	111 % of control	96 % of control	102 % of control	99 % of control
O=C(Cc1ccccc1)Nc1ccc(F)c(Nc2ccc3c(c2)CCCCC3=O)c1 [Compound 100]	86 % of control	93 % of control	76 % of control	98 % of control	92 % of control	95 % of control	109 % of control	89 % of control	110 % of control	94 % of control	92 % of control	99 % of control
